Assay results taken from ChEMBL document CHEMBL1129698, “Homo-N-nucleosides: Incorporation into oligonucleotides and antiviral activity” (1996).
Converted amounts (≈) assume the structure as drawn.

What was measured:
Assay type in all cases: functional
Human alphaherpesvirus 1 [1] = experiment: Compound was tested for the antiviral activity against herpes simplex virus-1 thymidine kinase deficient (HSV-1 TK-) VMW 1837 strain
[2] = Minimum cytotoxic concentration required to cause a microscopically detectable alteration of normal cell morphology
Human alphaherpesvirus 1 [3] = experiment: Compound was tested for the antiviral activity against herpes simplex virus-1 thymidine kinase deficient (HSV-1 TK-) B2006 strain
Human alphaherpesvirus 1 [4] = experiment: Compound was tested for the antiviral activity against herpes simplex virus-1 (HSV-1) KOS strain
Human alphaherpesvirus 2 = experiment: Compound was tested for the antiviral activity against herpes simplex virus-2 (HSV-2) G strain

SMILES | MIC (Human alphaherpesvirus 1 [1]) | MIC [2] | MIC (Human alphaherpesvirus 1 [3]) | MIC (Human alphaherpesvirus 1 [4]) | MIC (Human alphaherpesvirus 2)
Nc1nc2c(ncn2COCCO)c(=O)[nH]1 [ACYCLOVIR] | 4 µg/mL (≈ 17.8 µM) | > 400 µg/mL | 80 µg/mL (≈ 355 µM) | 0.02 µg/mL (≈ 0.0888 µM) | 0.03 µg/mL (≈ 0.133 µM)
Nc1ncnc2c1ncn2C[C@H]1C[C@H](O)[C@@H](CO)O1 | 8 µg/mL (≈ 30.2 µM) | > 400 µg/mL | 10 µg/mL (≈ 37.7 µM) | 20 µg/mL (≈ 75.4 µM) | 6 µg/mL (≈ 22.6 µM)
NC1=NC(=O)C2N=CN(C[C@H]3C[C@H](O)[C@@H](CO)O3)C2=N1 (stereo not given in full) | 12 µg/mL (≈ 42.7 µM) | > 400 µg/mL | 12 µg/mL (≈ 42.7 µM) | 5 µg/mL (≈ 17.8 µM) | 5 µg/mL (≈ 17.8 µM)
O=c1[nH]c(=O)n([C@H]2C[C@H](O)[C@@H](CO)O2)cc1/C=C/Br [BRIVUDINE] | 30 µg/mL (≈ 90.1 µM) | 200 µg/mL (≈ 600 µM) | 20 µg/mL (≈ 60 µM) | 0.007 µg/mL (≈ 0.021 µM) | > 100 µg/mL
